Consider eleven compounds from patent US20230390247A1, “BIPHENYL PYRROLIDINE AND BIPHENYL DIHYDROIMIDAZOLE DERIVATIVES FOR INHIBITING ACTIVITY OF 5-HT7 SEROTONIN RECEPTOR, AND PHARMACEUTICAL COMPOSITION COMPRISING SAME AS ACTIVE INGREDIENT” (priority 2020, published 2023).

What all share (assay type): cell-based
The target of test [1] is T1, 5-HT7R (Homo sapiens (Human), UniProt P34969). As to the kind of experiment: Tango assay (β-arrestin signaling system). Particulars: HTLA cells transfected with 5-HT7R-TCS-tTA construct. The method, then:
Tango assay was conducted using HTLA cells in order to investigate the activity of the β-arrestin signaling system. Prior to transfection, the culture medium was replaced from DMEM containing 10% FBS, 100 U/mL penicillin, 100 μg/mL streptomycin, 2 μg/mL puromycin and 100 μg/mL hygromycin B to DMEM containing 10% dialyzed FBS, 100 U/mL penicillin and 100 μg/mL streptomycin. 4 hours later, transfection was conducted using 20 μg of a 5-HT7R-TCS-tTA construct (5-HT7R Tango DNA). The transfected cells were prepared on a white, flat, clear-bottom, 384-well plate (Greiner) (15,000 cells/well, 20 μL/well) using DMEM containing 10% dialyzed FBS, 100 U/mL penicillin and 100 μg/mL streptomycin. 6 hours later, after removing the culture medium, the cells were treated with 10 μL of the compound solution. After culturing for 22 hours and removing the culture medium, the cells were treated with 20 μL of a BrightGlo reagent (Promega) diluted in a 1×HBSS, […], pH 7.4 buffer. After measuring luminescence using a Tecan microplate reader (Spark), IC50 value was obtained using the Prism 8.0 program (GraphPad Software).

In test [2] the target is T1, 5-HT7R. Nature of the test: cAMP assay (luminescence-based, GloSensor). As to conditions: HEK293 cells transfected with human 5-HT7R and GloSensor-22F. The protocol: For luminescence-based cAMP assay, HEK293 cells were cultured on a 150-mm dish. Prior to transfection, the culture medium was replaced from DMEM containing 10% FBS, 100 U/mL penicillin and 100 μg/mL streptomycin to DMEM containing 10% dialyzed FBS, 100 U/mL penicillin and 100 μg/mL streptomycin. 4 hours later, transfection was conducted using 10 μg of a human 5-HT7R plasmid and 10 μg of a GloSensor-22F plasmid (Promega). The transfected cells were prepared on a white, flat, clear-bottom, 384-well plate (Greiner) (15,000 cells/well, 20 μL/well). 6 hours later, after removing the culture medium, the cells were treated with 20 μL of a 3% Glosensor cAMP reagent containing luciferin in a 1×HBSS, […], pH 7.4 buffer. In addition, the compound of each of the examples was prepared at different concentrations in an assay buffer containing 0.1% bovine serum albumin. 30 minutes later, 10 μL of the compound solution was treated to the cells. After measuring luminescence using a Tecan microplate reader (Spark), IC50 value was obtained using the Prism 8.0 program (GraphPad Software).
Background: cAMP levels reflect the balance of adenylyl cyclase and phosphodiesterase activity.

The target of test [3] is T1, 5-HT7R. As to the kind of experiment: Schild plot for Tango assay. Particulars: compounds at 5 μM, 10 μM and 30 μM with serotonin, read-out: pA2 (converted). The method, then: Schild plots were constructed for the Tango assay in order to investigate the effect of the compounds on the activity of the β-arrestin signaling pathway. After culturing cells and replacing the culture medium as described in b) of Test Example 1, the cells were transfected and prepared on a plate. 6 hours later, the cells were treated with 10 μL of the solution of serotonin or the compounds at final concentrations of 5 μM, 10 μM and 30 μM. […] In addition, the pA2 value was obtained using the Excel software. The Schild plots and pA2 values of compound 23 and compound 30 according to the present disclosure are summarized in FIGS. 1A-1B, FIG. 2 and Table 8.

T1 sequence (P34969 whole entry): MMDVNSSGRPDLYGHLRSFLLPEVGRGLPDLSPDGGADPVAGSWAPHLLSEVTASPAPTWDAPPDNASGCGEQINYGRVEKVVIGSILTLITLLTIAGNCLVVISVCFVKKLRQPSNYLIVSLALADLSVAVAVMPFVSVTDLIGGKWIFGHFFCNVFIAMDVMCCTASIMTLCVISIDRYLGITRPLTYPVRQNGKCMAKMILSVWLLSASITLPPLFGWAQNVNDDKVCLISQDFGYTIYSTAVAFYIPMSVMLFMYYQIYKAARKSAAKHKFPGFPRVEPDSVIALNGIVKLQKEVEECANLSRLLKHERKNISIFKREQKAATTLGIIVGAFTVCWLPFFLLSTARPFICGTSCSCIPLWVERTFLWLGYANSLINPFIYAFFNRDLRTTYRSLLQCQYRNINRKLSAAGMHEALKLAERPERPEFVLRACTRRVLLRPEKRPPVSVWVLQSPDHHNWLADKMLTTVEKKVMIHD

In general, inhibition refers to the drop in the measured response relative to a control, in per cent. Higher therefore signals a response far below the control. Broadly, the IC50 is the concentration that inhibits the measured activity by half. In test [1], `c1ccc(-c2cccc(C3=NCCN3)c2)cc1` [Compound 23, 2-([1,1′-biphenyl]-3-yl)-4,5-dihydro-1H-imidazole] returned an inhibition at 10 µM of 44.2% and an IC50 of 47.9 µM. In test [2], this compound returned an inhibition at 10 µM of 83.3% and an IC50 of 5.1 µM. In addition, the Kb in test [3] was 5.75 µM.

In test [1], `COc1ccccc1-c1cccc(C2=NCCN2)c1` [Compound 30, 2-(2′-methoxy-[1,1′-biphenyl]-3-yl)-4,5-dihydro-1H-imidazole] registered an inhibition at 10 µM of 40.6% and an IC50 of 39.8 µM. In test [2], the inhibition at 10 µM amounted to 94.1% and the IC50 is 2.58 µM. The Kb in test [3] was 1.26 µM.

Take `Clc1cccc(-c2cc(C3=NCCN3)ccc2Cl)c1` [Compound 36, 2-(3′,6-dichloro-[1,1′-biphenyl]-3-yl)-4,5-dihydro-1H-imidazole]: in test [1], the inhibition at 10 µM was 44.8% and the IC50 was found to be 10 µM. Moreover, in test [2], the inhibition at 10 µM came out at 52.4%.

Consider `Clc1ccc(-c2cc(C3=NCCN3)ccc2Cl)cc1` [Compound 37, 2-(4′,6-dichloro-[1,1′-biphenyl]-3-yl)-4,5-dihydro-1H-imidazole], for which the results for the inhibition at 10 µM in test [1] and in test [2] were 39.6% and 43.3%, respectively.

Turning to `Cc1ccccc1-c1cc(C2=NCCN2)ccc1Cl` [Compound 38, 2-(6-chloro-2′-methyl-[1,1′-biphenyl]-3-yl)-4,5-dihydro-1H-imidazole], the figures for the inhibition at 10 µM in test [1] and in test [2] were 31.7% and 51.4%, respectively.

Turning to `Cc1cccc(-c2cc(C3=NCCN3)ccc2Cl)c1` [Compound 39, 2-(6-chloro-3′-methyl-[1,1′-biphenyl]-3-yl)-4,5-dihydro-1H-imidazole], the inhibition at 10 µM stood at 27% in test [1] and 48.1% in test [2].

As to `Cc1ccc(-c2cc(C3=NCCN3)ccc2Cl)cc1` [Compound 40, 2-(6-chloro-4′-methyl-[1,1′-biphenyl]-3-yl)-4,5-dihydro-1H-imidazole], the inhibition at 10 µM in test [1] stood at 31.3%; in test [2] it was 48.9%.

Regarding `COc1ccccc1-c1cc(C2=NCCN2)ccc1Cl` [Compound 41, 2-(6-chloro-2′-methoxy-[1,1′-biphenyl]-3-yl)-4,5-dihydro-1H-imidazole], the inhibition at 10 µM in test [1] was 27.7%; in test [2] it was 44.3%.

On to `COc1cccc(-c2cc(C3=NCCN3)ccc2Cl)c1` [Compound 42, 2-(6-chloro-3′-methoxy-[1,1′-biphenyl]-3-yl)-4,5-dihydro-1H-imidazole], for which the inhibition at 10 µM was found to be 23.4% in test [1] and 49.8% in test [2].

With `COc1ccc(-c2cc(C3=NCCN3)ccc2Cl)cc1` [Compound 43, 2-(6-chloro-4′-methoxy-[1,1-biphenyl]-3-yl)-4,5-dihydro-1H-imidazole], the inhibition at 10 µM in test [1] came to 21.5%; in test [2], 36.8%.

Turning to `COc1cccc(OC)c1-c1cc(C2=NCCN2)ccc1Cl` [Compound 44, 2-(6-chloro-2′,6′-dimethoxy-[1,1′-biphenyl]-3-yl)-4,5-dihydro-1H-imidazole], the inhibition at 10 µM in test [1] came out at 9.8%; in test [2], 48.4%.
